{"source": "patent US20240335439A1", "about": "“USE OF AND METHOD FOR TELAPREVIR IN PREPARATION OF DRUG FOR TREATING AN ISCHEMIA/REPERFUSION INJURY AND CYTOPROTECTIVE DRUG” (THE THIRD XIANGYA HOSPITAL OF CENTRAL SOUTH UNIVERSITY, priority 2021, published 2024)", "key": {"[1]": {"test_system": "ischemic stroke rat models", "test": "Ischemic stroke rat model (MCAO 2 h, reperfusion 24 h)", "type": "in vivo, SD rats", "settings": "telaprevir 60 mg/kg after 2 hours of ischemia and 1 hour of reperfusion", "protocol": "(§1) Experimental animals: Healthy male SD rats weighing 250-300 g. The experimental animals were raised for one week in an environment with a temperature of 25° C., a relative humidity of 60%, free drinking water, and timed and quantified feeding, and then administered according to the requirements of each experimental group.\nMethod for building an ischemic stroke rat model: A cerebral ischemia/reperfusion rat model was prepared by a middle cerebral artery occlusion (MCAO) method. […]\nRat brain TTC staining and infarct volume measurement: After the rat was anesthetized, the brain was quickly taken out, the olfactory bulb and posterior brain were removed, and five coronal brain slices having a thickness of about 2.0 mm were cut from the antiunion, immediately placed in a 1% TTC solution, incubated at 37° C. in dark for 30 minutes, and then soaked and immobilized in a 10% paraformaldehyde solution. […] The infarct area of each brain slice was measured by ImageJ, and an infarct volume of the whole brain was calculated according to a formula: infarct volume=[(sum of front infarct areas of all slices+sum of back infarct areas of all slices)/2]×the thickness of each slice, that is, a sum of infarct volumes of all brain slices. […]\nNeurological function scores of rats were detected and cerebral infarct volumes were measured."}, "[2]": {"test_system": "ischemic stroke mouse models", "test": "Ischemic stroke mouse model (MCAO 1 h, reperfusion 24 h)", "type": "in vivo, C57BL/6J mice", "settings": "telaprevir 90 mg/kg intramuscular after 1 hour of ischemia and 1 hour of reperfusion", "protocol": "as §1, with “7-week-old” for “Healthy”, “C57BL/6J mice.” for “SD rats weighing 250-300 g.”\nMethod for building an ischemic stroke mouse model: A cerebral ischemia/reperfusion mouse model was prepared by a middle cerebral artery occlusion (MCAO) method. The steps were as follows: after an 8-week-old male C57BL/6J mouse was anesthetized by intraperitoneal injection with 0.3% pentobarbital sodium (20 mL/kg), a left common carotid artery (CCA) was isolated, and a left external carotid artery (ECA) and internal carotid artery (ICA) were isolated upwards; the ECA and ICA were temporarily occluded with ophthalmic forceps, and a proximal end of the CCA was ligated; a knotted spare silk suture was placed at a distal end of the CCA, a small incision was cut below the suture, an occlusion suture was inserted into the internal carotid artery, arterial clips on the ECA and ICA were released, and the occlusion suture was delivered into the cranium along the ICA; and when encountering resistance, the silk suture was tightened, the occlusion suture was secured. […]\nNeurological function scores of mice were detected and cerebral infarct volumes were measured."}}, "data": [{"smiles": "CCC[C@H](NC(=O)[C@@H]1[C@H]2CCC[C@H]2CN1C(=O)[C@@H](NC(=O)[C@@H](NC(=O)c1cnccn1)C1CCCCC1)C(C)(C)C)C(=O)C(=O)NC1CC1", "note": "[telaprevir]", "values": [{"measurement": "neurological impairment symptoms (Longa neurological function score) of rats", "setting": "[1]; ##P<0.01 vs I/R, FIG. 2B", "value": "significantly improve"}, {"measurement": "cerebral infarct volume of rats (TTC staining)", "setting": "[1]; vs I/R, FIG. 2A", "value": "significantly decreased"}, {"measurement": "neurological impairment symptoms (Longa neurological function score) of mice", "setting": "[2]; ##P<0.01 vs I/R, FIG. 3B", "value": "significantly improve"}, {"measurement": "cerebral infarct volume of mice (TTC staining)", "setting": "[2]; vs I/R, FIG. 3A", "value": "significantly decreased"}]}]}
